Read-outs that look alike come from different tables or passages of the source.
Columns and labels:
[1] = test system: rat fundus, acetylcholine; assay: Selectivity: inhibition of response to acetylcholine, rat fundus; format: biochemical; conditions: agonist acetylcholine, read-out: concentration to inhibit standard response to stimulants by 50% (IC50)
Source text: (§1) A selection of classical in vitro pharmacological test preparations (rat uterus, rat fundus, guinea-pig ileum, guinea-pig taenia caeci) were set up according to well-established procedures (see "Pharmacological Experiments on Isolated Preparations" Staff of the Department of Pharmacology, University of Edinburgh, Livingstone, Edinburgh 1970). Various spasmogens were used to elicit contraction of these tissues though mechanisms other than the 5-HT "M" receptor. The concentrations of tropyl 3,5-dimethoxybenzoate (A), tropyl 3,5-dimethylbenzoate (B) and tropyl 3,5-dichlorobenzoate (C) which reduced the effects of a submaximal dose of agonist by 50% were determined (IC50). The results are set forth in Table VI below in which the compounds are identified by the reference letters used above.

[2] = test system: rat uterus, 5-HT; assay: Selectivity: inhibition of response to 5-HT, rat uterus; format: biochemical; conditions: agonist 5-HT, read-out: concentration to inhibit standard response to stimulants by 50% (IC50)
Source text: as §1

[3] = test system: patients with migraine or cluster headaches; assay: Pilot study of tolerance and efficacy, intravenous, in patients with migraine or cluster headaches; format: in vivo, human (patients); conditions: for headache response: Patient No. 6
Protocol: This study was designed to evaluate tolerance and, if possible, efficacy of intravenous tropyl 3,5-dichlorobenzoate in patients with migraine or cluster headaches.
Eight patients (4 males), aged 27-47 with known headache disorders of 5-27 years duration (see Table VII) took part in the study but Patients Nos. 2 and 4 had cluster not migraine headaches and the cause of headaches in Patient No. 6 was unknown.
Tropyl 3,5-dichlorobenzoate was provided as a sterile solution, 1 mg/ml; the desired dose to be diluted in 10 ml normal saline for intravenous infusion over a 2 minute period. No other therapy was taken for at least 24 hours before treatment or during the course of therapy.
Doses as high as 14 mg/day and 9 mg single dose were administered without any signs of intolerance.

[4] = test system: rat fundus, 5-HT; assay: Selectivity: inhibition of response to 5-HT, rat fundus; format: biochemical; conditions: agonist 5-HT, read-out: concentration to inhibit standard response to stimulants by 50% (IC50)
Source text: as §1

[5] = test system: rat uterus, oxytocin; assay: Selectivity: inhibition of response to oxytocin, rat uterus; format: biochemical; conditions: agonist oxytocin, read-out: concentration to inhibit standard response to stimulants by 50% (IC50)
Source text: as §1

[6] = test system: guinea-pig ileum, histamine; assay: Selectivity: inhibition of response to histamine, guinea-pig ileum; format: biochemical; conditions: agonist histamine, read-out: concentration to inhibit standard response to stimulants by 50% (IC50)
Source text: as §1

[7] = test system: mouse and rat; assay: Acute toxicity (LD50) in the mouse and rat, overall statement; format: in vivo
[8] = test system: 5-HT (Von Bezold-Jarisch reflex); assay: Von Bezold-Jarisch reflex evoked by i.v. 5-HT in the anaesthetized rat, antagonism; format: in vivo, rat (male Sprague-Dawley); conditions: for ED50 / minimal effective dose: iv; for ED50: read-out: ED50 (inhibits the response to 5-HT by 50%); for minimal effective dose: read-out: threshold dose (just inhibits the response to 5-HT); for potency relative to metoclopramide: Von Bezold-Jarisch reflex, comparative test
Source text: The activity of these compounds against 5-HT can be assessed in vivo by measurement of the effect of the compound on the Von Bezold-Jarisch Reflex induced by 5-HT injected intravenously into the rat (A.S. Paintal, Physiol. Rev. 53, 159-227, 1973). The transient cardiac slowing arises from an increased […] vagus activity arising from stimulation by 5-HT of sensory afferent fibres in and around the heart (see Example 3).
Antagonism of the Von Bezold-Jarisch reflex evoked by 5-HT in the anaesthetized rat was measured for tropyl 3,5-dimethoxybenzoate (A), tropyl 3,5-dimethylbenzoate (B) and tropyl 3,5-dichlorobenzoate (C) using the following method.
Male Sprague-Dawley rats weighing 250-300 g are anaesthetized with urethane, 1.25 g/kg injected intraperitoneally and set up for recording blood pressure and heart rate as described in J. R. Fozard et al, J. Cardiovas. Pharmacol. 2, 229-245 (1980). A submaximal dose of 5-HT ([…]) is given repeatedly into the cannulated jugular vein and changes in heart rate are quantified. Antagonists are given intravenously and the doses required to just inhibit the response to 5-HT (threshold dose) or to inhibit the response to 5-HT by 50% (ED50) are determined.

[9] = test system: guinea-pig taenia caeci, calcium; assay: Selectivity: inhibition of response to calcium, guinea-pig taenia caeci; format: biochemical; conditions: agonist calcium, guinea-pig taenia caeci in potassium depolarized Tyrode solution; read-out: concentration to inhibit standard response to stimulants by 50% (IC50)
Source text: as §1
*In potassiumdepolarized Tyrode solution

[10] = test system: guinea-pig ileum, acetylcholine; assay: Selectivity: inhibition of response to acetylcholine or carbachol, guinea-pig ileum; format: biochemical; conditions: read-out: concentration to inhibit standard response to stimulants by 50% (IC50)
Source text: as §1
**Carbachol agonist instead of acetylcholine

[11] = test system: acute migraine attack; conditions: slow intravenous injection, 10 mg; J. B. Hughes 1977; cited from earlier work
[12] = Patient 6, after 4 mg dose i.v.

Structure (SMILES)	IC50 [1] [µM]	IC50 [2] [µM]	IC50 [4] [µM]	IC50 [5] [µM]	IC50 [6] [µM]	toxicity as shown by LD50 values [7]	ED50 ([8]; Rattus norvegicus) [µg/kg]	minimal effective dose ([8]; Rattus norvegicus) [µg/kg]	potency relative to metoclopramide [8]	IC50 [9] [µM]	IC50 ([10]; agonist acetylcholine) [µM]	also measured
CN1C2CCC1CC(OC(=O)c1cc(Cl)cc(Cl)c1)C2 (stereo not shown) [C, tropyl 3,5-dichlorobenzoate]	12.4	25.4	> 50.9	> 50.9	3.68	relatively non-toxic	22 ± 3.2	7.72 ± 0.63	many times more potent than metoclopramide	28.6	8.05	response ([3]; Patient 1, i.v. 1 mg, then 1 hour later, 2 mg): no effect on headache or nausea; response ([3]; Patient 2 (cluster), i.v. 1 mg): no effect; response ([3]; Patient 4 (cluster), i.v. 3 mg): no effect; effect of increased doses ([3]; Patient 6, 5 mg bid × 2 days, then 6 mg bid × 11 days i.v.): no greater effect; duration of reduction of pain intensity [3, 12]: 4 to 8 h; time to reduction of pain intensity [3, 12]: ≤ 30 min; reduction of pain intensity ([3]; Patient 6, within 30 minutes after 4 mg dose i.v.): 70-80%; response ([3]; Patient 7, i.v. 3 mg × 1 day, then 5 mg × 2 days, then 7 mg × 1 day): no effect; response during increasing doses ([3]; Patient 8, i.v. 6 mg × 1 day, 7 mg × 2 days, 9 mg × 1 day): maintained during increasing doses; reduction of pain ([3]; Patient 8, with 3 mg i.v.): about 30%; headache response ([3]; 3 mg single doses i.v.): slight reduction in their bilateral headache; headache response ([3]; 4 mg bid i.v.): further amelioration; time after stopping therapy to return of headaches to pretreatment intensity ([3]; Patient No. 8): 6 to 7 days; symptom response ([3]; Patient No. 8, first dose of 3 mg i.v.): decrease in all symptoms; repeated dose well tolerated (highest) ([3]; i.v. b.i.d., patients with headaches): up to 7 mg; cumulative dose well tolerated (highest) ([3]; i.v., over 18 days): 177 mg; dose per day administered without any signs of intolerance (highest) ([3]; i.v., patients): 14 mg/day; patients with marked diminution of headache and associated symptoms ([3]; patients treated with repeated doses (Patients Nos. 6 and 8), i.v.): two of the three patients; pain intensity and associated symptoms ([3]; some patients treated with doses of 3 mg or greater, i.v.): ameliorated
Cc1cc(C)cc(C(=O)OC2CC3CCC(C2)N3C)c1 (stereo not shown) [B, tropyl 3,5-dimethylbenzoate]	–	–	–	–	–	relatively non-toxic	6.07 ± 0.72	3.57 ± 0.33	many times more potent than metoclopramide	34.2	–	IC50 ([10]; carbachol agonist instead of acetylcholine): 9.59 µM
COc1cc(OC)cc(C(=O)OC2CC3CCC(C2)N3C)c1 (stereo not shown) [A, tropyl 3,5-dimethoxybenzoate]	13.1	> 52.5	40	> 52.5	6.61	relatively non-toxic	13.7 ± 1.2	6.96 ± 0.9	many times more potent than metoclopramide	36.1	9.56	–
CCN(CC)CCNC(=O)c1cc(Cl)c(N)cc1OC [metoclopramide, reference compound]	–	–	–	–	–	–	–	–	–	–	–	relief of acute migraine attack [11]: immediate relief of acute migraine attack; minimal effective dose ([8]; antagonist i.v., anaesthetized rat): 233 ± 66.3 µg/kg

Reference: patent publication US4563465A, “Treatment of migraine with substituted tropyl benzoate derivatives” (Merrell Dow Pharmaceuticals Inc., priority 1981, dated 1986)
